25 compounds from patent US9174992B2, “Heterobicyclic compounds” (Amgen Inc., priority 2012, dated 2015) can be followed below.

Usually IC50 stands for the point on the concentration scale where inhibition reaches its midpoint.

The target of this assay is PDE10A (UniProt Q9Y233). The assay is described as follows: PDE10 enzyme inhibition, IMAP TR-FRET assay (Example A, MPDE10A7 Enzyme Activity and Inhibition). The conditions noted are these: approximate IC50 value, Table 10. The class given is biochemical. How it is done: Enzyme Activity. An IMAP TR-FRET assay was used to analyze the enzyme activity (Molecular Devices Corp., Sunnyvale Calif.). 10 μL of serial diluted PDE10A (BPS Bioscience, San Diego, Calif.) or tissue homogenate was incubated with equal volumes of diluted fluorescein labeled cAMP or cGMP for 90 min in 384-well Polypropylene assay plates (Greiner, Monroe, N.C.) at room temperature. After incubation, the reaction was stopped by adding 55 μL of diluted binding reagents and was incubated for 4 hours to overnight at room temperature. The plates were read on an Envision (Perkin Elmer, Waltham, Mass.) for time resolved fluorescence resonance energy transfer. The data were analyzed with Genedata Screener® (Lexington, Mass.).
Enzyme Inhibition. To check the inhibition profile, 0.2 μL of serial diluted compounds were incubated with 10 μL of diluted PDE10 enzyme (BPS Bioscience, San Diego, Calif.) or tissue homogenate in a 384-well Polypropylene assay plate (Greiner, Monroe, N.C.) for 60 min at room temperature. After incubation, 10 μL of diluted fluorescein labeled cAMP or cGMP substrate were added and incubated for 90 min at room temperature. The reaction was stopped by adding 55 μL of diluted binding reagents and plates were read on an Envision (Perkin Elmer, Waltham, Mass.) for time resolved fluorescence resonance energy transfer. The data were analyzed with Genedata Screener® (Lexington, Mass.).
IC50 curves were generated from the raw data collected from the […] and fitted with a four-parameter logistic equation using in-house data analysis tool, Activity Base.
Background: In TR-FRET formats the signal depends on donor and acceptor labels being close together.

`Cn1c(=O)n([C@H]2C[C@H](Nc3nc4ccccc4s3)C2)c2nccnc21` [Example 95, 1-(trans-3-(benzo[d]thiazol-2-ylamino)cyclobutyl)-3-methyl-1H-imidazo[4,5-b]pyrazin-2(3H)-one] displayed an IC50 of 0.971 nM.
As for `CSc1ncc2c(n1)N([C@H]1C[C@H](Nc3nc4ccc(F)cc4s3)C1)C(=O)C2(C)C` [Example 156, 7-(trans-3-((6-fluorobenzo[d]thiazol-2-yl)amino)cyclobutyl)-5,5-dimethyl-2-(methylthio)-5H-pyrrolo[2,3-d]pyrimidin-6(7H)-one], the figure is 9.08 nM; as for `CC1(C)C(=O)N([C@H]2C[C@H](Nc3nc4ccc(F)cc4o3)C2)c2nccnc21` [Example 177, 5-(trans-3-((6fluorobenzo[d]oxazol-2-yl)amino)cyclobutyl)-7,7-dimethyl-5H-pyrrolo[2,3-b]pyrazin-6(7 H)-one], 2.82 nM; as for `CC1(C)C(=O)N([C@H]2C[C@H](Nc3ccc4cccnc4n3)C2)c2nccnc21` [Example 162, 5-(trans-3-((1,8-naphthyridin-2-yl)amino)cyclobutyl)-7,7-dimethyl-5H-pyrrolo[2,3-b]pyrazin-6(7H)-one], 6.77 nM.
As for `CC1(C)C(=O)N([C@H]2C[C@H](Nc3nc4ccc(F)cc4s3)C2)c2ncncc21` [Example 157, 7-(trans-3-((6-fluorobenzo[d]thiazol-2-yl)amino)cyclobutyl)-5,5-dimethyl-5H-pyrrolo[2,3-d]pyrimidin-6(7H)-one], the figure is 4.45 nM; as for `CC1(C)C(=O)N([C@H]2C[C@H](Nc3cnccn3)C2)c2ncccc21` [Example 65, 3,3-Dimethyl-1-(trans-3-(pyrazin-2-ylamino)cyclobutyl)-1H-pyrrolo[2,3-b]pyridine-2(3H)-one], 44.8 nM; as for `O=c1n(C2CCCC2)c2cccnc2n1[C@H]1C[C@H](Nc2nc3ccccc3s2)C1` [Example 89, 3-(trans-3-(benzo[d]thiazol-2-ylamino)cyclobutyl)-1-cyclopentyl-1H-imidazo[4,5-b]pyridin-2(3H)-one], 0.131 nM.
Next, `N#CC1(NC(=O)c2cnc(N[C@H]3C[C@H](n4c(=O)n(C5CC5)c5nccnc54)C3)s2)CC1` [Example 151, N-(1-cyanocyclopropyl)-2-((trans-3-(3-cyclopropyl-2-oxo-2,3-dihydro-1H-imidazo[4,5-b]pyrazin-1-yl)cyclobutyl)amino)thiazole-5-carboxamide]: 2490 nM.
`O=c1n(C2CC2)c2cccnc2n1[C@H]1C[C@H](Nc2nc3cc(F)ccc3s2)C1` [Example 185, 1-cyclopropyl-3-(trans-3-((5-fluorobenzo[d]thiazol-2-yl)amino)cyclobutyl)-1H-imidazo[4,5-b]pyridin-2(3H)-one] came in with an IC50 of 0.839 nM.
As for `CC1(C)C(=O)N([C@H]2C[C@H](Nc3nc4c(F)cc(F)cc4s3)C2)c2nccnc21` [Example 170, 5-(trans-3-((4,6-difluorobenzo[d]thiazole-2-yl)amino)cyclobutyl)-7,7-dimethyl-5H-pyrrolo-[2,3-b]pyrazin-6(714)-one], the figure is 2.71 nM; as for `COc1nc2cccnc2n1C1CN(c2nccc(C)n2)C1` [Example 127, 2-Methoxy-3-(1-(4-methylpyrimidin-2-yl)azetidin-3-yl)-3H-imidazo[4,5-b]pyridine], 4.77 nM.
In turn, `Cn1c(=O)n([C@H]2C[C@H](Nc3nc4ccc(F)cc4s3)C2)c2ncc(F)cc21` [Example 209, 6-fluoro-3-(trans-3-((6-fluorobenzo[d]thiazol-2-yl)amino)cyclobutyl)-1-methyl-1H-imidazo[4,5-b]pyridin-2(3H)-one] registered an IC50 of 0.88 nM.
Consider `CC1(C)C(=O)N([C@H]2C[C@H](Nc3ccc(Br)cn3)C2)c2ncccc21` [Example 40, 1-(Trans-3-((5-bromopyridin-2-yl)amino)cyclobutyl)-3,3-dimethyl-1H-pyrrolo[2,3-b]pyridin-2(3H)-one], for which the IC50 is 0.263 nM.
Take `O=c1n(C2CC2)c2cccnc2n1[C@H]1C[C@H](Nc2nc3ccc(F)cc3s2)C1` [Example 186, 1-cyclopropyl-3-(trans-3-((6-fluorobenzo[d]thiazol-2-yl)amino)cyclobutyl)-1H-imidazo[4,5-b]pyridin-2(3H)-one]: the IC50 was 0.669 nM.
Next, `Cn1c(=O)n([C@H]2C[C@H](Nc3ccc(Cl)cn3)C2)c2ncccc21` [Example 146, 3-(trans-3-((5-chloropyridin-2-yl)amino)cyclobutyl)-1-methyl-1H-imidazo[4,5-b]pyridin-2(3H)-one]: 3.32 nM.
`Cc1ccc(N[C@H]2CC[C@H](N3C(=O)C(C)(C)c4nccnc43)CC2)nc1` [Example 73, 7,7-dimethyl-5-(trans-4-((5-methylpyridin-2-yl)amino)cyclohexyl)-5H-pyrrolo[2,3-b]pyrazin-6(7H)-one] gave an IC50 of 1.54 nM.
Next, `Cn1c(=O)n([C@H]2C[C@H](Nc3nc4cccnc4s3)C2)c2ncccc21` [Example 172, 1-methyl-3-(trans-3-(thiazolo[-5,4-b]pyridin-2-ylamino)cyclobutyl)-1H-imidazo[4,5-b]pyridin-2(3 H)-one]: 2.15 nM; `CC1(C)C(=O)N(C2CCN(c3nc4ccccc4s3)CC2)c2ncccc21` [Example 189, 1-(1-(benzo[d]thiazol-2-yl)piperidin-4-yl)-3,3-dimethyl-1H-pyrrolo[2,3-b]pyridin-2(3 H)-one]: 1.99 nM.
In turn, `O=c1n(C2CC2)c2nccnc2n1[C@H]1C[C@H](Nc2ccc(Cl)cn2)C1` [Example 221, 1-(trans-3-((5-chloropyridin-2-yl)amino)cyclobutyl)-3-cyclopropyl-1H-imidazo[4,5-b]pyrazin-2(3H)-one] had an IC50 of 2.77 nM.
For the compound `COc1ccc2nc(N[C@H]3C[C@H](n4c(=O)n(C5CC5)c5nccnc54)C3)sc2c1` [Example 225, 1-cyclopropyl-3-(trans-3-((6-methoxy-1,3-benzothiazol-2-yl)amino)cyclobutyl)-1,3-dihydro-2H-imidazo[4,5-b]pyrazin-2-one], the IC50 turned out to be 10.8 nM.
Next, `Cc1ccc(N2CCC(N3C(=O)C(C)(C)c4cccnc43)CC2)nc1` [Example 121, 3,3-dimethyl-1-(1-(5-methylpyridin-2-yl)piperidin-4-yl)-1H-pyrrolo[2,3-b]pyridin-2(3H)-one]: 0.049 nM; `O=c1[nH]c2cccnc2n1[C@H]1C[C@@H](Nc2nc3ccccc3s2)C1` [Example 103, 3-(cis-3-(benzo[d]thiazol-2-ylamino)cyclobutyl)-1H-imidazo[4,5-b]pyridin-2(3H)-one]: 26.6 nM.
As for `Cc1csc(N[C@H]2C[C@H](N3C(=O)C(C)(C)c4cccnc43)C2)n1` [Example 203, 3,3-dimethyl-1-(trans-3-((4-methylthiazol-2-yl)amino)cyclobutyl)-1H-pyrrolo[2,3-b]pyridin-2(3H)-one], the figure is 109 nM.
The compound `Clc1ncnc2c1ncn2[C@H]1C[C@H](Nc2ncc3ccccc3n2)C1` [Example 21, N-(Trans-3-(6-chloro-9H-purin-9-yl)cyclobutyl)quinazolin-2-amine] had an IC50 of 88.4 nM.
In the case of `Cn1c(=O)n([C@H]2C[C@H](Nc3nc4ccccc4s3)C2)c2ncncc21` [Example 93, 9-(trans-3-(benzo[d]thiazol-2-ylamino)cyclobutyl)-7-methyl-7H-purin-8(9H)-one], it took 0.878 nM to reach half-maximal inhibition (IC50).
